Legend:
DNA in A2780 P cells = assay: Pt binding to DNA in cultured cells (ICP-MS), A2780 P; assay type: cell-based, human; details: 4 hours of cell treatment; for DNA-bound Pt in A2780 P: 40 μM of Pt complexes
Description: (§1) Pt DNA binding of Pt complexes was measured in SW480 cells (colon cancer) and CH1 cells (lymphoma) or alternatively A2780 P and A2780 cisR cells (sensitive and resistant to cisplatin respectively). The cells were seeded in 60 mm tissue culture dishes with 10 ml of their respective medium. After overnight incubation the medium was removed and replaced with 10 ml of the respective medium containing a platinum complex giving a final concentration of 43 or 40 μM depending on the experiment. The cells were incubated with a given Pt complex for either 2 or 4 h depending on the experiment. The cells were trypsinised and centrifuged. The supernantant was removed and the cells washed twice with 1×PBS and centrifuged. The pellet was re-suspended in DNA buffer to which Proteinase K (20 mg/mL) and 10% SDS were added. After a gentle shake and incubation at 45° C. for two hours, RNAse (100 mg/mL) was added and the cells were incubated at 37° C. overnight. The volume of supernatant was noted and an equal volume of phenol was added.
(§2) The resulting mixture was shook for 10 min, then centrifuged for 10 min at 10° C. The supernatant was transferred into a new centrifuge tube (15 ml) and the volume was noted. To this was added an equal volume of phenol and chloroform/isoamylalcohol (24:1). The resulting mixture was shook for 10 min, then centrifuged for 10 min at 10° C. (3000 RPM). The supernatant was transferred into a new centrifuge tube (15 mL) and the volume was noted. To this was added an equal volume of chloroform. The resulting mixture was shook for 10 min, then centrifuged for 10 min at 10° C. The supernatant was transferred into a new centrifuge tube (15 mL) and the volume was noted. To this was added a volume that is 1/10 of the supernatant of 3 M sodium acetate (Ph 5.2) and three times the volume of cold 100% isopropanol (from freezer). The solution was shook gently until the DNA is precipitated. […] The absorbance of the DNA by was measured by UV spectrophotometry at 260 nm and 280 nm and the concentration of DNA calculated. Platinum bound to DNA was determined by ICP-MS.

DNA in A2780 cisR cells = assay: Pt binding to DNA in cultured cells (ICP-MS), A2780 cisR; assay type: cell-based, human; details: 4 hours of cell treatment
Description: as §1
The resulting mixture was shook for 10 min, then centrifuged for 10 min at 10° C. The supernatant was transferred into a new centrifuge tube (15 ml) and the volume was noted. […] The absorbance of the DNA by was measured by UV spectrophotometry at 260 nm and 280 nm and the concentration of DNA calculated. Platinum bound to DNA was determined by ICP-MS.

A2780 cisR cells = assay: Morphological analysis (methylene blue/eosin and DAPI staining), A2780 cisR; assay type: cell-based, human; details: IC50 and IC75, 72 hr
Description: Preparations of A2780 P and A2780-cisR cells were exposed to test agents for 72 hr and stained with methylene blue and eosin^19. Drug-treated cells were grown in petri dishes, washed once with PBS, once with PBS:methanol (1:1, v/v), and then fixed in 100% (v/v) methanol for 10 min. Following fixation, cell monolayers were rinsed with anhydrous methanol and stained with methylene blue and eosin for 2 min. Monolayers were then agitated for a further 2 min, destained by rinsing under a gentle stream of water and then finally rinsed with distilled water. Phase contrast microscopy was carried out using a Ceti-phase contrast microscope.
Drug-treated cells were also stained using a DNA-binding agent commonly used to stain nuclei and visualise nuclear morphology and DNA condensation, namely 4,6-diamidino-2-phenylindole (DAPI). Briefly, a monolayer of drug-treated cells was washed in PBS and fixed with 4% (w/v) paraformaldehyde for 30 min at room temperature. These cells were then permeabilized with 0.2% (v/v) Triton X in PBS and incubated with 1 μg/ml of DAPI for 30 min. Cells were again washed three times with PBS and viewed using a fluorescent microscope with 340/380 nm excitation filter at 250× magnification. Apoptotic cells were confirmed by identification of intensely stained, fragmented nuclei and condensed chromatin.

[1] = test system: breast cancer cell line (SKBR); assay: MTS in vitro cytotoxicity, SKBR; assay type: cell-based; details: 72 hours, Table 1, read-out: IC50 values against SKBR
Description: (§3) All cells were kept in a humidified atmosphere with 5% CO2 at 37° C.; cells from confluent monolayers were removed from flasks by trypsin/EDTA solution and their viability determined by the trypan blue exclusion test.
(§4) Cell growth was determined by the [3-(4,5-dimethylthiazol-2-yl)-5-(3-carboxymethoxyphenyl)-2-(4-sulfophenyl)-2H-tetrazolium, inner salt, (MTS test, Promega, Southampton, UK), a colorimetric assay based on the ability of the viable cells to reduce a soluble yellow tetrazolium salt to blue formazan. 10,000 ovarian cancer cells or 3,000 fibroblast cells for example were seeded per well onto 96-well plates in 100 μl of the appropriate culture medium. 24 hr after sowing the cells, the media was removed and the cells were treated by adding 100 μl of the compound media solutions at the appropriate concentrations. cis-[Pt(NH3)2(malSAHA−2H)], cisplatin and cis-[Pt(NH3)2(mal)] were prepared freshly in cell culture media. […] The maximum percentage of dmso present in any well was less than 0.1% (v/v). cis-[Pt(NH3)2(malBel—2H)], belinostat and malbelinostat were freshly prepared in dimethyl formamide (DMF) and diluted in culture media prior to the MTS assay. The maximum percentage of DMF present in any well was 0.5% (v/v). A range of concentrations between 1 μM and 100 μM was used.
(§5) After 72 hr of treatment, 20 μl of the MTS reagent was added to each well and the plates incubated for 2 hr at 37° C. […] The percentages of surviving cells relative to untreated controls were determined.

[2] = test system: colon cancer cell line (SW480); assay: MTS in vitro cytotoxicity, SW480; assay type: cell-based; details: 72 hours, Table 1, read-out: IC50 values against SW480
Description: as §3, §4, §5

cell line (CH1) = assay: MTS in vitro cytotoxicity, CH1; assay type: cell-based; details: 72 hours, Table 1, read-out: IC50 values against CH1
Description: as §3, §4, §5

[3] = test system: liver cell lines (Hep-G2); assay: MTS in vitro cytotoxicity, Hep-G2; assay type: cell-based; details: 72 hours, Table 1, read-out: IC50 values against Hep-G2
Description: as §3, §4, §5

[4] = test system: DNA in SW480 cells (colon cancer); assay: Pt binding to DNA in cultured cells (ICP-MS), SW480; assay type: cell-based; details: 2 hours of cell treatment
Description: as §1, §2

Structure (SMILES): [NH2][Pt]1([NH2])[O]C(=O)C(Cc2ccc(NS(=O)(=O)c3ccc(/C=C/C(=O)NO)cc3)cc2)C(=O)[O]1 [cis-[Pt(NH3)2(malBel−2H)], cis-[Pt(NH3)2(malBel−2H)].1.5H2O]
- DNA-bound Pt in A2780 P (DNA in A2780 P cells): 5,175 · 10^−15 ± 27 moles of Pt/μg of DNA
- DNA binding in A2780 P compared with cisplatin (in words) (DNA in A2780 P cells): binds DNA in A2780 P and A2780 cisR cancer cells and to a greater extent than cisplatin
- DNA binding in A2780 cisR compared with cisplatin (in words) (DNA in A2780 cisR cells): binds DNA in A2780 P and A2780 cisR cancer cells and to a greater extent than cisplatin
- cellular morphology and integrity of DNA (A2780 cisR cells): considerable thinning of the monolayer, attenuation of cells and the nuclei to be intensively stained and fragmented

Structure (SMILES): [NH2][Pt]1([NH2])[O]C(=O)C(Cc2ccc(NC(=O)CCCCCCC(=O)NO)cc2)C(=O)[O]1 [cis-[Pt(NH3)2(malSAHA−2H)], cis-[Pt(NH3)2(malSAHA−2H)].3H2O]
- IC50 [1]: 9.9 ± 1.8 µM
- IC50 [2]: 13.4 ± 3.9 µM
- IC50 (cell line (CH1)): 3.8 ± 0.5 µM
- IC50 [3]: 47.8 ± 4 µM
- binding of Pt to DNA in cultured cells (in words) ([4]; SW480 and CH1 cells): binds DNA in cultured cells after 2 hours of cell treatment

Structure (SMILES): N.N.[Cl][Pt][Cl] [cisplatin, cis-[Pt^II(NH3)2Cl2], reference compound]
- IC50 [1]: 7.5 ± 1.2 µM
- IC50 [2]: 8 ± 0.3 µM
- IC50 (cell line (CH1)): 1 ± 0.5 µM
- IC50 [3]: 39.8 ± 3.5 µM
- DNA-bound Pt in SW480 ([4]; 43 μM of Pt complexes): 38.5 · 10^−15 moles of Pt/μg of DNA
- DNA-bound Pt in A2780 P (DNA in A2780 P cells): 200 · 10^−15 ± 60 moles of Pt/μg of DNA
- DNA-bound Pt in A2780 cisR (DNA in A2780 cisR cells; 40 μM of Pt complexes): 665 · 10^−15 ± 6 moles of Pt/μg of DNA
- cellular morphology and integrity of DNA (A2780 cisR cells): considerable thinning of the monolayer, attenuation of cells and the nuclei to be intensively stained and fragmented

— patent publication US8901337B2, “Metal complexes having dual histone deacetylase inhibitory and DNA-binding activity” (Royal College of Surgeons in Ireland, priority 2009, dated 2014)
